{
  "source": "patent US8034819B2",
  "about": "“Glucokinase activator” (Kyorin Pharmaceutical Co., Ltd., priority 2007, dated 2011)",
  "test_system": "ICR mice",
  "test": "Hypoglycemic activity test",
  "assay_type": "in vivo",
  "details": "compared with compound 1 of the invention",
  "method": "Using ICR mice (male, 7 to 9 weeks, Charles River Laboratories Japan Inc.) the effects of each of the tested compounds on blood glucose levels were measured. Each compound was dissolved in a mixture of 60/40 of Gelucire 44/14 (trade name, manufactured by Gatefosse) and PEG 400, and the resulting mixture was orally administered (30 mg/kg, 10 mL/kg) to the mice, which had not been fed for two hours. Blood was collected by a blood collection tube coated with dipotassium ethylenediamine tetraacetate from the tail vein before administration (pre-value) and at points 0.5, 2, and 4 hours after administration. The collected blood was separated by centrifugation (4° C., 3,600×g, 3 minutes), to obtain blood plasma samples.\nEach sample was diluted 5-fold with physiological saline, and the blood glucose level was measured using glucose CII-test Wako (trade name, manufactured by Wako Pure Chemical Industries Ltd.). 10 μL each of one of the samples, physiological saline, and 100 mg/dL of glucose standard solution (200 mg/dL of glucose standard solution diluted two-fold with physiological saline) were placed in each well of a 96 well flat bottom plate. Then, 150 μL per well of a developing solution was added, and the color was developed by standing for 5 minutes at 37° C. Measurement was carried out at OD 505 nm using an En Vision 2103 Multilabel Reader (trade name, manufactured by PerkinElmer). The decrease in Σ glucose from the decrease in glucose of each collected point with respect to the pre-value (average of the decrease in glucose of each collected point with respect to the pre-value) was calculated.",
  "data": [
    {"smiles": "O=C(Nc1nccs1)C(CC1CC(F)C(F)C1)c1ccc(S(=O)(=O)C2CC2)cc1", "note": "(single isomer, unassigned; (+)) [(+)-2-[4-(cyclopropylsulfonyl)phenyl]-3-[(1β,3α,4α)-3,4-difluorocyclopentyl]-N-(thiazol-2-yl)propionamide]", "values": [
      {"measurement": "hypoglycemic activity (in words)", "value": "do not exhibit high hypoglycemic activity"}
    ]},
    {"smiles": "O=C(Nc1nccs1)C(C[C@H]1C[C@@H](F)[C@@H](F)C1)c1ccc(S(=O)(=O)C2CC2)cc1", "note": "(single isomer, unassigned; (+)) [Reference Example 3, (+)-2-[4-(Cyclopropylsulfonyl)phenyl]-3-[(1α,3α,4α)-3,4-difluorocyclopentyl]-N-(thiazol-2-yl)propionamide]", "values": [
      {"measurement": "hypoglycemic activity (in words)", "value": "do not exhibit high hypoglycemic activity"}
    ]},
    {"smiles": "O=C(Nc1nccs1)C(CC1CC(F)C(F)C1)c1ccc(S(=O)(=O)C2CC2)cc1", "note": "(single isomer, unassigned; (-)) [(−)-2-[4-(Cyclopropylsulfonyl)phenyl]-3-[(1β,3α,4α)-3,4-difluorocyclopentyl]-N-(thiazol-2-yl)propionamide]", "values": [
      {"measurement": "hypoglycemic activity (in words)", "value": "do not exhibit high hypoglycemic activity"}
    ]}
  ]
}
